Data from PMC9594042, “Probing the KRas Switch II Groove by Fluorine NMR Spectroscopy” (ACS Chemical Biology, 2022).
Where two headings read alike, the source gives them in different places.

Tests used:
KRas^G12D GDP [1] = target: T1, KRas^G12D GDP (Homo sapiens, UniProt P01116, G12D); type: binding; details: tested at 60 μM; probe 9 100 µM, protein 2 µM GDP-bound
T1 construct: HRas 1-166 (His-TEV-N; pProEx; ampicillin resistance) and KRas 1-169; His tag with TEV site (N, cleaved yes); made in house; host or cells: E. coli BL21(DE3)

[2] = target: T2, KRas^G12D GDP and KRas^G12D GNP (Homo sapiens, UniProt P01116, G12D); experiment: Dual-probe (9 and 12 in mixture) 19F CPMG NMR monitoring of both nucleotide states; type: binding; details: 6 μM each state
T2 construct: HRas 1-166 (His-TEV-N; pProEx; ampicillin resistance) and KRas 1-169; His tag with TEV site (N, cleaved yes); made in house; host or cells: E. coli BL21(DE3)
Text: (1 picture or pasted object on this page, not shown here)

KRas^G12D = target: KRas^G12D; parameters: method as in PMID 34889605; details: cited from earlier work
Aqueous solubility = type: physicochemical
KRas^G12D GDP [3] = target: T1, KRas^G12D GDP; experiment: 19F CPMG NMR probe binding (I/I0 vs probe concentration), GDP state
Text: (§1) We then sought to determine whether these SIIG-binders could serve as probe ligands to detect KRas proteins by ^19F NMR spectroscopy. One-dimensional CPMG experiments [90-(τ-180-τ)n], in which a spin–echo with delay τ is looped n times, attenuate signal intensity as a function of the transverse relaxation rate (R2) and total spin echo time (2·τ·n). Prior studies have shown that reversible binding of proteins to fluorine-containing small molecules induces an increase in the observed ^19F R2 at long values of τ, which maximize the exchange contribution to R2.[24],[25] […] Further modifications to the probe structure were required to improve its binding affinity and the sensitivity of the ^19F CPMG NMR assay.
(§2) The probe and protein concentrations were varied to determine the dependence on each binding partner. The normalized integrals (I/I0) of the probes decreased exponentially with increasing protein concentrations (Figure 2C, Figure S2C,D). The normalized integrals increased with increasing probe concentrations, and KD values for the probe–protein binding were extracted by fitting the data to eq 1 (Figure 2D, SI).
(§3) All non-linear regressions were performed in Graphpad Prism v9 with data points handled as individual values.
(§4) Constrained constants are noted.
(§5) Integrals (I) from single-point CPMG experiments were calculated by dividing the probe’s absolute integral by the standard’s absolute integral (3-trifluoromethylphenol, 3TFMP) from the same sample. The resulting integral values (I) were averaged (n=3) and then normalized by dividing by the measurement obtained in the absence of protein (I0, n=1 or 3). Errors in I/I 0 and -ln(I/I0) were propagated from the standard devi ations (SD) in I and I 0. In all cases, I and I0 were measured from the same premixed aliquot of probe and 3 -trifluoromethylphenol.
(§6) The KD values of probes were calculated by fitting normalized integrals to equation 1 , where I and I0 are the integrals in the presence and absence of protein, respectively, A is a constant in Hz, t is the total spin-echo time (2·τ·n), and [P]0 and [L]0 are the total concentrations of protein and probe, respectively (constraining [P]0 and t). See the supplementary information for derivation.
(§7) I⁄I = e−A∙t∙[P]0⁄(KD+[L]0) (eq 1) […]
(§8) Preparation of Ras proteins.
(§9) The plasmids for bacterial expression of HRas 1-166 (His-TEV-N; pProEx; ampicillin resistance) and KRas 1-169 (His-TEV-N; pJ411; kanamycin resistance) have been previously published.1 Mutants were obtained by site-directed mutagenesis (Q5, NEB; or Genscript Biotech). BL21(DE3) competent cells were transformed with 1-2 ng of plasmid.
(§10) Cultures for the preparation of natural abundance isotope proteins were grown at 37 °C (A600 0.4 -0.6) in Terrific Broth (Sigma Aldrich), induced (1 mM IPTG), and allowed to express protein overnight at 18 °C. Cultures for the preparation of U -15N proteins were grown and induced in M9 minimal media supplemented with 1 g/L 15NH4Cl (CIL).
(§11) Cells were collected by centrifugation, lysed by sonication (Tris buffer pH 8.0, supplemented with 1 mM PMSF or 1 tablet per 50 ml EDTA-free cOmplete, Roche), and cleared by centrifugation. His -tagged Ras proteins were isolated with Co TALON resin (Takara Bio), the nucl eotide was exchanged to GDP by dialysis (0.5 mM EDTA), the His tag was cleaved with TEV protease, and the protein was purified by anion exchange (Tris buffer pH 8.0, 50 -500 NaCl gradient, HiTrap Q HP, Cytiva) and gel filtration (HEPES storage buffer pH 7.5 , Superdex 75, GE or Cytiva).
(§12) Nucleotide exchange from GDP to GPPNHP (Jena Biosciences) was performed with samples of protein reserved prior to the final gel filtration purification and according to a published procedure comprising EDTA -mediated exchange, desalting, and cleavage of residual GDP with an alkaline phosphatase (CIP or Quick CIP, NEB) 1-4, and then purified by gel filtration. Proteins were concentrated (10k Amicon Ultra, Millipore) to 0.5-1 mM, concentrations were […]
flash frozen in liquid N2 and stored at -80 °C. […]

[4] = target: T3, U-15N KRas^G12D GDP 1-169 (Homo sapiens, UniProt P01116, G12D); experiment: 1H-15N HSQC NMR binding; details: six peaks fit to single site binding curve; pH 7.4, 298 K, 10% dmso-d6, 50 µM protein; error is SD of six peaks
T3 construct: HRas 1-166 (His-TEV-N; pProEx; ampicillin resistance) and KRas 1-169; His tag with TEV site (N, cleaved yes); made in house; host or cells: E. coli BL21(DE3)

[5] = target: T4, KRas^G12D (both nucleotide states) (Homo sapiens, UniProt P01116, G12D); experiment: 19F CPMG NMR detection of KRas^G12D by probes (normalized integrals I/I0); type: binding; details: probe 100 μM, KRas^G12D 6 μM; for sensitivity of detection compared to 3 and 4: 160 ms CPMG; for nucleotide state detected: GDP vs GNP
T4 construct: HRas 1-166 (His-TEV-N; pProEx; ampicillin resistance) and KRas 1-169; His tag with TEV site (N, cleaved yes); made in house; host or cells: E. coli BL21(DE3)
Text: as §1
To improve the sensitivity of this method for oncogenic KRas proteins and to explore the relationship between structure and nucleotide-state specificity, we synthesized a series of derivatives of 3 and 4 with varied structure at the aryl ring expected to be buried deepest within the pocket, and these derivatives were evaluated by CPMG NMR spectroscopy against both nucleotide states of KRas^G12D (6 μM; Figure 2A,B). […] Probe 9 relaxed more slowly in the absence of protein (R2,free = 2.4 Hz) than did compounds containing the C-5 hydroxy group (R2,free = 6.3 Hz for 4, 4.4 Hz for 12, and 5.0 Hz for 17), increasing the sensitivity and dynamic range of integral measurements with this probe (Figure S2). Furthermore, probe 9 was confirmed to be a tighter binder to the SIIG of U–^15N KRas^G12D GDP by HSQC NMR compared to 4 (Figure S3).
Figure 2 SAR of SIIG binders enables more sensitive detection of KRas^G12D. (a) Chemical structures of SIIG binders. (b) Normalized integrals (I/I0) from ^19F CPMG NMR spectra (160 ms) of probes (100 μM) with KRas^G12D (6 μM); values are means ± errors propagated from SD (n = 3). (c) Effect of varying KRas^G12D concentration on I/I0; values are means ± errors propagated from SD (n = 3). (d) Effect of varying probe concentration on I/I0; [P]0 = 6 μM for probes 9 and 12, 3 μM for probe 17; individual points shown (n = 3); data fit to eq 1 (SI).
as §8, §9, §10, §11, §12
flash frozen in liquid N2 and stored at -80 °C.
Storage buffer: 20 mM HEPES, 150 mM NaCl, 1 mM MgCl2. Titrated to pH 7.5 with NaOH. Storage buffer for U- […]

[6] = tested on: panel of KRas proteins (G12 and Q61 mutations), GDP and GNP states; experiment: 19F CPMG NMR detection of a panel of KRas and HRas proteins; type: binding; details: probe 100 μM, protein 6 μM, 160 ms CPMG
Procedure: The closely related protein HRas 1–166 contains only one residue difference within the SIIG binding site (Q95 in HRas vs H95 in KRas). HRas was only weakly detected by this method; however, the results with HRas^Q95H closely matched those obtained with KRas^WT.
Figure 3 ^19F CPMG NMR spectroscopy detects a variety of oncogenic KRas proteins. Normalized integrals (I/I0) from ^19F CPMG NMR spectra (160 ms) of 100 μM 9 (a), 12 (b), or 17 (c) in the presence of 6 μM KRas or HRas proteins; values are means ± errors propagated from the SDs of I and I0 (n = 3).
as §8, §9, §10
Cells were collected by centrifugation, lysed by sonication (Tris buffer pH 8.0, supplemented with 1 mM PMSF or 1 tablet per 50 ml EDTA-free cOmplete, Roche), and cleared by centrifugation. […]
1D 1H (ZGESGP) and 2D 1H-15N fast HSQC (FHSQCCF3GPPH, NS = 8, TDF1 = 256, GARP decoupling) spectra were recorded at 298 K on an 800 MHz Bruker Avance NEO spectrometer equipped with an actively shielded Z-gradient 5 mm TCI cryoprobe (H&F/C/N) using programs from the pulse program library (TopSpin 4.0.8). Spectra were processed and analyzed with Bruker Topspin 4.0 and CCPNMR Analysis v3.5 1H chemical shifts were referenced to 1 mM DSS at 0 ppm; 15N chemical shifts were referenced indirectly with Ξ = 0.101329118. […]

KRas^G12D GNP = target: T5, KRas^G12D GNP (Homo sapiens, UniProt P01116, G12D); experiment: 19F CPMG NMR probe binding (I/I0 vs probe concentration), GNP state
T5 construct: HRas 1-166 (His-TEV-N; pProEx; ampicillin resistance) and KRas 1-169; His tag with TEV site (N, cleaved yes); made in house; host or cells: E. coli BL21(DE3)
Text: as §1, §2, §3, §4, §5, §6, §7, §8
as §9, with “plasmid. […]” for “plasmid.”

[7] = 19F CPMG 160 ms, varying probe concentration, [P]0 = 6 μM for 9 and 12, 3 μM for 17, fit to eq 1, read-out: KD
[8] = non-linear regression eq 1, t=0.16 s, read-out: KD (extracted value, Table S1)
[9] = 19F CPMG 160 ms, varying probe concentration, [P]0 = 6 μM for 12, 3 μM for 17, fit to eq 1, read-out: KD

Kd (KRas^G12D GDP [3]; [7]) [µM]	Kd (KRas^G12D GDP [3]; [8]) [µM]	sensitivity of detection compared to 3 and 4 [5]	SMILES	nucleotide state detected [5]	detection of oncogenic KRas proteins [6]	also measured
–	–	–	C=CC(=O)N1CC2(CC(n3nc(-c4ccc5c(cnn5C)c4)c(-c4c(Cl)c(C)cc5[nH]ncc45)c3C)C2)C1 [JDQ443]	–	–	occupancy of the SIIP of KRas^G12D (KRas^G12D GDP [1]): did not occupy
–	–	–	C#Cc1c(F)ccc2cc(O)cc(-c3ncc4c(N5CC6CCC(C5)N6)nc(OC[C@@]56CCCN5C[C@H](F)C6)nc4c3F)c12 [MRTX1133]	–	–	nucleotide state occupied ([2]; 9 and 12 50 μM each, MRTX849 60 μM, MRTX1133 in excess 15 μM, KD2 30 μM): occupied both nucleotide states; nucleotide state occupied ([2]; substoichiometric quantities (2, 4, and 6 μM)): selectively occupied the GDP-state; Ki (KRas^G12D; GDP state): < 1 pM; binding affinity (KRas^G12D): subpicomolar
–	–	–	C=CC(=O)Nc1cc(Cl)cc(NC(=O)c2cnn(-c3ccc(OC)cc3)c2C(F)(F)F)c1 [compound 2]	–	–	aqueous solubility (Aqueous solubility): very low
200	204	increased sensitivity	NCCNC(=O)COCCOc1ccc(-n2ncc(C(=O)Nc3ccc(O)c(Cl)c3)c2C(F)(F)F)cc1 [compound 9]	specifically detected the GDP state	most sensitively detected the GDP state of KRas^G12D	Kd [4]: 580 ± 280 µM
310	307	increased sensitivity	Cc1c(Cl)cc(O)cc1NC(=O)c1cnn(-c2ccc(OCCOCC(=O)NCCN)cc2)c1C(F)(F)F [compound 12]	detected both nucleotide states with similar sensitivity	detected both nucleotide states of all oncogene products tested	Kd (KRas^G12D GNP; [9]): 780 µM; Kd (KRas^G12D GNP; [8]): 778 µM
–	–	increased sensitivity	NCCNC(=O)COCCOc1ccc(-n2ncc(C(=O)Nc3cc(O)cc(Cl)c3C3CC3)c2C(F)(F)F)cc1 [compound 14]	–	–	–
–	–	increased sensitivity	Cc1c(NC(=O)c2cnn(-c3ccc(OCCOCC(=O)NCCN)cc3)c2C(F)(F)F)ccc(O)c1Cl [compound 15]	–	–	–
350	352	increased sensitivity	NCCNC(=O)COCCOc1ccc(-n2ncc(C(=O)Nc3cc(O)cc4ccccc34)c2C(F)(F)F)cc1 [compound 17]	detected both nucleotide states with similar sensitivity	detected both nucleotide states of all oncogene products tested	Kd (KRas^G12D GNP; [9]): 390 µM; Kd (KRas^G12D GNP; [8]): 393 µM
